Assay: Human HepG2 cell viability assay in 384 well format
Assay type: toxicity, cell-based
Set-up: dose 125 nL, time 70.5 hour; concentration not given beside the values
Details: HepG2 cells, read-out: Inhibition

Row | SMILES | cytotoxicity at 70.5 h [%]
1 | c1cc(NCc2cscn2)cc(OCCN2CCCCC2)c1 | -2.11
2 | Cc1csc(CNc2cccc(OCCN3CCCC3)c2)n1 | 19.9
3 | CC(NCc1cccc2c1OCCO2)c1cc2c(cc1Br)OCCO2 (stereo not given) | -7.55
4 | CCN(C(c1cccnc1)c1ccc(F)cc1F)S(C)(=O)=O (stereo not given) | -12.1
5 | CCN(Cc1nc2c(cnn2C)c(=O)[nH]1)c1cccc(C)c1C | -0.49
6 | CN(CCc1ccncc1)C(=O)C1CSCN1C(=O)CC(C)(C)C (stereo not given) | -12.5
7 | CCc1nnc2n1CCN(Cc1noc(-c3cccc(C)c3)n1)C2 | -2.11
8 | CCc1cnccc1C(=O)NC1CCN(C(=O)C2CCCCC2)CC1 | -8.95
9 | CC(O)CN1CCC(CN(C)CCC(=O)NC2CCCC2)CC1 (stereo not given) | -1.49
10 | CC(c1nnc(-c2cccs2)o1)N1CCc2cncnc2C1 (stereo not given) | -1.71
11 | CC(C)=CCN1CCN(C(=O)C2CCS(=O)(=O)C2)CC1 (stereo not given) | 0.157
12 | O=C1COc2cc(C(=O)NCc3ccc(Cl)s3)ccc2N1 | -2.5
13 | CS(=O)(=O)NC1CCCN(C(=O)Nc2ccccc2Cn2cccn2)C1 (stereo not given) | 14.4
14 | CCc1ccc(CN(C(=O)CCn2cc(S(N)(=O)=O)cn2)C2CC2)cc1 | -2.81
15 | NS(=O)(=O)c1cnn(CCC(=O)N(Cc2ccccc2)C2CC2)c1 | -7.26
16 | Cc1nn(C)c(N(C)C)c1CNC1CCCCNC1=O (stereo not given) | -4.25
17 | O=c1oc2ccccc2n1CCCN1CCCC1c1ccc(O)cc1 (stereo not given) | -1.72
18 | CC(C)(C(N)=O)S(=O)(=O)c1ccc(Br)cc1 | -6.61
19 | NS(=O)(=O)c1cnn(CCC(=O)N(C2CCCCC2)C2CC2)c1 | -3.97
20 | Cc1ccc(N2CCCN(C(=O)c3n[nH]c4c3CCC4)CC2)nn1 | 1.32
21 | O=C(Nc1ccccc1Cn1cccn1)N1CCC(N2CCCC2)C1 (stereo not given) | -2.57
22 | CCOc1ccc(S(=O)(=O)C(C)C(=O)Nc2cc(C)no2)cc1 (stereo not given) | -4.64
23 | Cc1cc(CNC2(c3ccccc3)CCCCC2)on1 | -0.993
24 | Cc1nc(O)ccc1C(=O)NCc1ncoc1C | -2.74

Row | SMILES | cytotoxicity at 70.5 h [%]
25 | Cc1[nH]ccc1C(=O)NCc1ncoc1C | -2.23
26 | CN(C)c1cccc(CNCc2ccc(N3CCOCC3)cc2)c1 | 14
27 | CC(O)CN1CCC(CN(C)CC(=O)NC2CCOCC2)CC1 (stereo not given) | -2.54
28 | O=C(Nc1cccc(Cn2cccn2)c1)N1CCCC(N2CCCC2)C1 (stereo not given) | -4.22
29 | Cn1cc(C2CCCN2CCCn2c(=O)oc3ccccc32)cn1 (stereo not given) | 12.6
30 | CN(Cc1cccs1)c1cc(N2CCCC2CO)ncn1 (stereo not given) | -1.74
31 | CCN(CC)S(=O)(=O)CCNc1nnc(C(C)C)s1 | 6.99
32 | CC(C)CCNc1nnc(C(C)C)s1 | -3.84
33 | O=S(=O)(NCCSc1nncn1C1CC1)c1ccccc1 | 30.9
34 | CC(C)(C)CCN1CCN(c2snc(Cl)c2C#N)CC1 | 4.63
35 | Cc1cnn(CC(C)NCc2c(C)nn(Cc3ccccc3)c2C)c1 (stereo not given) | -4.31
36 | CN(C)C(=O)Cc1ccccc1NCc1cc(C#N)ccc1F | -2.64
37 | CC(C)c1nc(/C=C/c2cnn(-c3ccc(Cl)cc3)c2)ncc1C(=O)O | 22.7
38 | Cc1[nH]ccc1C(=O)N1CCCN1C(=O)OC(C)(C)C | 0.542
39 | CC(C)(NC(=O)Cc1ccccc1F)C(C)(C)C(=O)O | -0.854
40 | O=C(CCn1nnc2ccccc2c1=O)N(CC1CCOC1)C1CC1 (stereo not given) | 1.53
41 | CCn1nc(C)c(CNCCn2cc(C)cn2)c1C | -4.46
42 | CCC(CC)n1ncc(C(=O)NS(=O)(=O)c2ccsc2)c1C | 21.2
43 | CCCN1CCC(N2CCN(c3cc(C)nc(COC)n3)CC2)CC1 | 3.64
44 | Cc1cc(CN(CCO)c2ccc(Br)cc2)on1 | -0.419
45 | CC(=O)N(Cc1noc(C)n1)C1CCN(CC(=O)N(C)C2CC2)C1 (stereo not given) | -2.89
46 | CN(CCc1ccccn1)C(=O)C(O)c1cc(Cl)cc(Cl)c1 (stereo not given) | 42.8
47 | Cc1cc(C)cc(OCC(=O)N2CCCC2)c1 | -21.3
48 | Cc1cc(C)cc(OCC(=O)N2CCC2)c1 | -22.1

Row | SMILES | cytotoxicity at 70.5 h [%]
49 | CC(Cn1cccn1)NC(=O)c1ccsc1 (stereo not given) | -11.4
50 | CCCn1cc(NC(=O)c2cccc3cccnc23)ccc1=O | -17.8
51 | NC(=O)CN1CCCN(C(=O)COc2cccc(F)c2)CC1 | -25.4
52 | c1cnn(CCNCc2cnc(N3CCOCC3)nc2)c1 | 41.2
53 | Cc1nccn1CCCNc1ccc(Cl)c(C#N)n1 | -24.8
54 | O=C1CCC(C(=O)Nc2ccc(=O)n(Cc3ccc(Cl)c(Cl)c3)c2)N1 (stereo not given) | -16.6
55 | COCc1noc(-c2cc(Cl)c3c(c2)OCCCO3)n1 | -8.58
56 | COCCc1noc(-c2cc(Cl)c3c(c2)OCCCO3)n1 | -19.1
57 | COc1ccc2c(OCC(=O)NC(C)(C)C)ccnc2c1 | -18.7
58 | CS(=O)(=O)CCSCc1cc(F)cc2cccnc12 | -16.7
59 | COCC(C)NC(=O)CN1CCCC1 (stereo not given) | -23.1
60 | CC(C)c1nsc(N2CCOCC2)n1 | -27.4
61 | N#Cc1cccc(CS(=O)(=O)NCC(O)Cc2ccccc2)c1 (stereo not given) | -0.967
62 | CCc1nc(NS(=O)(=O)c2ccc(F)cc2C)no1 | -5.01
63 | CSCc1nc(C(C)(C)NC(=O)OC(C)(C)C)no1 | -7.03
64 | O=S(=O)(CCNCc1cccc2c1OCCO2)N1CCOCC1 | 5.04
65 | CCc1nc(C(=O)NCc2ccc(N3CCNC(=O)C3)c(F)c2)c[nH]1 | 5.08
66 | CCC(CNC(=O)c1cc(OC)ccc1Br)N1CCc2ccccc2C1 (stereo not given) | 7.55
67 | COc1ccc(CCNC(=O)NC2CCCC2)cc1OC | -12.5
68 | COCCn1cc(C(=O)N2CCCC2c2cc(C)no2)ccc1=O (stereo not given) | -11.6
69 | COc1ccc(C(CO)NC(=O)Nc2cccc(C#N)c2)cc1 (stereo not given) | -8.65
70 | COc1cc(C)nc(N2CCN(C(=O)CCc3nccs3)CC2)n1 | 9.16
71 | COc1cc(C)nc(N2CCN(C(=O)CCc3cscn3)CC2)n1 | -6.3
72 | N#Cc1cccc(NC(=O)N[C@H](CO)c2ccccc2)c1 | -10.8

Row | SMILES | cytotoxicity at 70.5 h [%]
73 | Cc1nccc(CNC(=O)NCCOc2ccc(F)c(F)c2)n1 | -2.22
74 | CC(c1ccc(Cl)cc1)N1CCN(CCS(C)(=O)=O)CC1 (stereo not given) | -6.43
75 | N#Cc1cc(NC(=O)c2ccccc2)ccc1N1CCC(O)CC1 | 1.64
76 | COc1ccccc1OCC(=O)NS(=O)(=O)c1ccccc1F | -0.501
77 | CC(NC1CCN(CCS(C)(=O)=O)CC1)c1ccc(Cl)cc1 (stereo not given) | 19.3
78 | CC(=O)c1cccc(OCCCC(=O)N(C)Cc2cccc(O)c2)c1 | -6.39
79 | O=C(CN1CCCCC1Cn1cncn1)NC1CCN(C2CC2)CC1 (stereo not given) | -1.8
80 | O=C(CN1CCCCC1Cn1cccn1)NC1CCN(C2CC2)CC1 (stereo not given) | -7.07
81 | O=C(CN1CCCC1Cn1cccn1)NC1CCOCC1 (stereo not given) | -5.99
82 | c1coc(-c2noc(CN3CCC(c4ccn[nH]4)CC3)n2)c1 | -8.33
83 | CCOC(C)c1nc(CN2CCNCC2)cs1 (stereo not given) | 10.9
84 | COCCn1cc(C(=O)N2CCCC2c2cccc(F)c2)ccc1=O (stereo not given) | -4.27
85 | O=C(NCc1ccccc1CN1CCC(O)CC1)Nc1cccnc1 | -4.5
86 | Cc1nn(C)c(C)c1CNC1CCOc2ccccc21 (stereo not given) | -8.58
87 | CCCc1noc(CCC(=O)NC(C)c2nnc3n2CCCCC3)n1 (stereo not given) | -9.55
88 | O=C(C1CCCc2[nH]ncc21)N1CCCCCC1 (stereo not given) | -7.74
89 | CCNC(=O)CN1CCCN(C(=O)C2CCCc3[nH]ncc32)CC1 (stereo not given) | -8.68
90 | CCC(CC)c1cc(CNC(=O)N2CCCC(N(C)C)C2)on1 (stereo not given) | -9.56
91 | CCOC(=O)NC(CNC(=O)c1ccccn1)CC(C)C (stereo not given) | -4.75
92 | CN1CCN(Cc2ccccc2CNC(=O)c2ccc(Br)cc2)CC1 | -7.15
93 | CCN(CC(=O)NC)S(=O)(=O)N1CCCCCC1 | -10.4
94 | Cc1cc(S(=O)(=O)Nc2cccc(-n3cccc3)c2)sc1C(=O)O | -13
95 | O=C(NC1CCS(=O)(=O)C1)c1sccc1-c1ccc(F)cc1 (stereo not given) | -7.53
96 | COc1c(CNC2CCCc3ccccc32)c(C)nn1C (stereo not given) | -8

Row | SMILES | cytotoxicity at 70.5 h [%]
97 | O=C(NCC1CCS(=O)(=O)C1)c1sccc1-c1ccc(F)cc1 (stereo not given) | 8.07
98 | COc1ccnc(N2CCN(C(=O)c3csc(C4CC4)n3)CC2)n1 | -6.71
99 | O=C(NCC1CC1)Nc1cccc(N2CCN(CC3CC3)CC2)c1 | -0.269
100 | COCc1cccc(NC(C)C(=O)N(C)Cc2ccccc2)c1 (stereo not given) | 10.7
101 | Cc1cnn(CC2CN(CCS(=O)(=O)c3ccccc3)CCO2)c1 (stereo not given) | -9.7
102 | Cc1cn(CC(=O)NC2CCN(S(C)(=O)=O)CC2)c2ccccc12 | -4.04
103 | Cc1cnn(CC2CN(CCN3CCCC3=O)CCO2)c1 (stereo not given) | -11.5
104 | Cc1cnc(NC(=O)N2CCCC2)s1 | -12
105 | COc1ccc(F)cc1C(C)NC(=O)c1nnc(C)s1 (stereo not given) | -5.29
106 | CC(O)CC(C)(C)CNC(=O)NCc1cccc(-n2ccnc2)c1 (stereo not given) | -7.65
107 | O=C(C1CCCc2[nH]ncc21)N1CCCC1 (stereo not given) | -4.89
108 | CCN(CC(=O)NC(C)C)S(=O)(=O)N1CCC(C)C1 (stereo not given) | -6.99
109 | CC(=O)N1CCN(Cc2nnc(C(C)(C)C)o2)CC1 | -8.04
110 | CNC(=O)CS(=O)(=O)Cc1coc(-c2ccc(OC)cc2)n1 | -12.7
111 | CNC(=O)CS(=O)(=O)Cc1coc(-c2ccc(F)cc2)n1 | -9.1
112 | CC(C)(C)c1nc(CN2CCC(c3nc4cc(Cl)ccc4o3)CC2)no1 | 15.4
113 | CCNC(=O)N1CCCCC1CCNS(C)(=O)=O (stereo not given) | -10.5
114 | CN(C)C1CCN(C(=O)NCc2ccccc2Cn2cncn2)CC1 | -11.6
115 | CN(C)C1CCN(C(=O)NCc2ccc(Cn3cncn3)cc2)CC1 | 14.8
116 | CCOC(CC)C(=O)NCc1ccnc(Oc2ccc(F)cc2)c1 (stereo not given) | -7.99
117 | Cc1ccc(NC(=O)NC(C)C(=O)N2CCS(=O)(=O)CC2)cc1 (stereo not given) | -7.48
118 | O=C(NCCNCC1CNc2ccnn2C1)c1ccc(F)cc1 (stereo not given) | -6.67
119 | CCOc1ccc(C(=O)NS(=O)(=O)c2cncc(Br)c2)cc1OC | 18.9
120 | CCCNC(c1ccc(F)cc1)c1cccnc1 (stereo not given) | -19.4

— ChEMBL document CHEMBL3507680, “University of Dundee, Gates Library screen for HepG2 cell viability”
